Data published in patent US10123995B2, “Factor XIa inhibitors” (MERCK SHARP & DOHME CORP., priority 2015, dated 2018).

Experiments:
[1] = target: purified human Factor XIa (Homo sapiens (Human), UniProt P03951); test: Factor XIa Assay; assay type: biochemical; settings: Factor XIa inhibition; substrate Z-Gly-Pro-Arg-AFC, pH 7.4; read-out: hFXIa IC50
Description: The effectiveness of a compound of the present invention as an inhibitor of Coagulation Factor XIa can be determined using a relevant purified serine protease, and an appropriate synthetic substrate. The rate of hydrolysis of the chromogenic or fluorogenic substrate by the relevant serine protease was measured both in the absence and presence of compounds of the present invention. Assays were conducted at room temperature or at 37° C. […] A decrease in the rate of fluorescence change in the presence of inhibitor is indicative of enzyme inhibition. Such methods are known to one skilled in the art. […]
Factor XIa determinations were made in 50 mM HEPES buffer at pH 7.4 containing 150 mM NaCl, 5 mM CaCl2, and 0.1% PEG 8000 (polyethylene glycol; JT Baker or Fisher Scientific). Determinations were made using purified human Factor XIa at a final concentration of 40 pM (Sekisui Diagnostics) and the synthetic substrate, Z-Gly-Pro-Arg-AFC, TFA salt (Sigma #C0980) at a concentration of 100 μM.
Activity assays were performed by diluting a stock solution of substrate at least tenfold to a final concentration ≤0.1 Km into a solution containing enzyme or enzyme equilibrated with inhibitor. Times required to achieve equilibration between enzyme and inhibitor were determined in control experiments. Initial velocities of product formation in the absence (Vo) or presence of inhibitor (Vi) were measured. Assuming competitive inhibition, and that unity is negligible compared Km/[S], [I]/e, and [I]/e (where [S], [I], and e respectively represent the total concentrations, of substrate, inhibitor and enzyme), the equilibrium constant (Ki) for dissociation of the inhibitor from the enzyme can be obtained from the dependence of Vo/Vi on [I] shown in the following equation. Vo/Vi=1+[I]/Ki

[2] = target: purified Human plasma kallikrein (Homo sapiens (Human), UniProt P03952); test: Kallikrein Assay; assay type: biochemical; settings: table titled Kalikrein inhibition (column head prints hFXIa), substrate Acetyl-K-P-R-AFC, pH 7.4
Sequence of purified Human plasma kallikrein (P03952 391-638): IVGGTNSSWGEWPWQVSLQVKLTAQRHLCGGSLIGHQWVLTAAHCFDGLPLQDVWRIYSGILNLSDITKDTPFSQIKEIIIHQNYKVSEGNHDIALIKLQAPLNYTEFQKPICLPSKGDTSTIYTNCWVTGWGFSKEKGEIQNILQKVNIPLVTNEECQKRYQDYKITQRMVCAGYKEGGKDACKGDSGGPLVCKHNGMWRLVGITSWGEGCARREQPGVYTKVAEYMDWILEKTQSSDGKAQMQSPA
Sequence of purified Human plasma kallikrein (P03952 20-390 partner): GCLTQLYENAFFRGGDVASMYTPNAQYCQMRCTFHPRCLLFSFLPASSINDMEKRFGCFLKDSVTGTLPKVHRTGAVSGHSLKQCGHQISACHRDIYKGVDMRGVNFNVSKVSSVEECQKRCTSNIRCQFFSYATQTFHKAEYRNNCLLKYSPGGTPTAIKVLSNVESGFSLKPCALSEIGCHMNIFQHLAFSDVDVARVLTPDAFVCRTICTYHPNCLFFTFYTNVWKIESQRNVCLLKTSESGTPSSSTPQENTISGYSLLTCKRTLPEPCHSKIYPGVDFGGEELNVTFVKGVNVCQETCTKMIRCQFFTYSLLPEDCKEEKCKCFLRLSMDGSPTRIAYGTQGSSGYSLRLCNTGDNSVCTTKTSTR
Description: The effectiveness of a compound of the present invention as an inhibitor of Kallikrein can be determined using a relevant purified serine protease, and an appropriate synthetic substrate. The rate of hydrolysis of the chromogenic or fluorogenic substrate by the relevant serine protease was measured both in the absence and presence of compounds of the present invention. Assays were conducted at room temperature or at 37° C. […] A decrease in the rate of fluorescence change in the presence of inhibitor is indicative of enzyme inhibition. Such methods are known to one skilled in the art. The results of this assay are expressed as the inhibitory constant, Ki.
Kallikrein determinations were made in 50 mM HEPES buffer at pH 7.4 containing 150 mM NaCl, 5 mM CaCl2, and 0.1% PEG 8000 (polyethylene glycol; Fisher Scientific). Determinations were made using purified Human plasma kallikrein at a final concentration of 0.5 nM (Enzyme Research Laboratories) and the synthetic substrate, Acetyl-K-P-R-AFC (Sigma # C6608) at a concentration of […].
Activity assays were performed by diluting a stock solution of substrate at least tenfold to a final concentration ≤0.2 Km into a solution containing enzyme or enzyme equilibrated with inhibitor. Times required to achieve equilibration between enzyme and inhibitor were determined in control experiments. The reactions were performed under linear progress curve conditions and fluorescence increase measured at 405 Ex/510 Em nm. Values were converted to percent inhibition of the control reaction (after subtracting 100% Inhibition value). IC50 was determined by inflection point from a four parameter logistic curve fit. Ki was calculated using the Cheng Prusoff equation, Ki=IC50/(1+([S]/Km)).

Sequence of purified human Factor XIa (P03951 388-625): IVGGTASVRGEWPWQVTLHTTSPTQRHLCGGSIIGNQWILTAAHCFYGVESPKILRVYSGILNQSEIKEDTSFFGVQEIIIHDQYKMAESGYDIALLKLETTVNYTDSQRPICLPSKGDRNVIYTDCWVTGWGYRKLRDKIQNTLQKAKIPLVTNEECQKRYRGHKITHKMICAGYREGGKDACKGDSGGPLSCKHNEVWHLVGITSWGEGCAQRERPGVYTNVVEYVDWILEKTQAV
Sequence of purified human Factor XIa (P03951 19-387 partner): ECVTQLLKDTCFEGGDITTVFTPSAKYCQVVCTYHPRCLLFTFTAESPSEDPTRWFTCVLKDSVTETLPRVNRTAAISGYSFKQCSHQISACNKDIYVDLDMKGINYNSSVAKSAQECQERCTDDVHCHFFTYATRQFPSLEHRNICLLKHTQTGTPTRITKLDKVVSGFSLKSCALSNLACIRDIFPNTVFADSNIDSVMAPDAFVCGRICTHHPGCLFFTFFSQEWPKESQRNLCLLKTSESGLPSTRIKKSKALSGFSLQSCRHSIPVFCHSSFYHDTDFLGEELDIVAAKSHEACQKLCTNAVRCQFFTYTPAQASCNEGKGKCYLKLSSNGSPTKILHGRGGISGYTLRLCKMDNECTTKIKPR

Compound | IC50 [1] | IC50 [2]
O=C(O)c1ccc(NC(=O)C2CC(O)c3cc(-c4cc(Cl)ccc4-n4cnnn4)c[n+]([O-])c32)cc1 (racemic) [Example 6, 4-[({3-[5-chloro-2-(1H-tetrazol-1-yl)phenyl]-5-hydroxy-1-oxido-6,7-dihydro-5H-cyclopenta[b]pyridin-7-yl}carbonyl)amino]benzoic acid] | 10.5 nM | 700 nM
O=C(O)c1ccc(NC(=O)C2CC(O)c3cc(-c4cc(Cl)ccc4-n4cnnn4)c[n+]([O-])c32)cc1 (single isomer, unassigned) [Example 5] | 3.6 nM | 504 nM
O=C(O)c1ccc(NC(=O)C2CC(O)c3cc(-c4cc(Cl)ccc4-n4cnnn4)c[n+]([O-])c32)cc1 (single isomer, unassigned) [Example 7] | 8.6 nM | 1720 nM
O=C(O)c1ccc(NC(=O)C2(O)CC(O)c3cc(-c4cc(Cl)ccc4-n4cnnn4)c[n+]([O-])c32)cc1 (single isomer, unassigned) [Example 9, 4-[({3-[5-Chloro-2-(1H-tetrazol-1-yl)phenyl]-5,7-dihydroxy-1-oxido-6,7-dihydro-5H-cyclopenta[b]pyridin-7-yl}carbonyl)amino]benzoic acid] | 2.9 nM | 460 nM
O=C(O)c1ccc(NC(=O)C2(O)CC(O)c3cc(-c4cc(Cl)ccc4-n4cnnn4)c[n+]([O-])c32)cc1 (single isomer, unassigned) [Example 10, 4-[({3-[5-Chloro-2-(1H-tetrazol-1-yl)phenyl]-5,7-dihydroxy-1-oxido-6,7-dihydro-5H-cyclopenta[b]pyridin-7-yl}carbonyl)amino]benzoic acid] | 2.7 nM | 530 nM
O=C(O)c1ccc(NC(=O)C2(O)CC(O)c3cc(-c4cc(Cl)ccc4-n4cnnn4)c[n+]([O-])c32)cc1 (single isomer, unassigned) [Example 11, 4-[({3-[5-Chloro-2-(1H-tetrazol-1-yl)phenyl]-5,7-dihydroxy-1-oxido-6,7-dihydro-5H-cyclopenta[b]pyridin-7-yl}carbonyl)amino]benzoic acid] | 104 nM | –
O=C(O)c1ccc(NC(=O)C2(O)CC(O)c3cc(-c4cc(Cl)ccc4-n4cnnn4)c[n+]([O-])c32)cc1 (single isomer, unassigned) [Example 12, 4-[({3-[5-Chloro-2-(1H-tetrazol-1-yl)phenyl]-5,7-dihydroxy-1-oxido-6,7-dihydro-5H-cyclopenta[b]pyridin-7-yl}carbonyl)amino]benzoic acid] | 202 nM | –
O=C(O)c1ccc(NC(=O)C2(O)CC(F)c3cc(-c4cc(Cl)ccc4-n4cnnn4)c[n+]([O-])c32)cc1 (single isomer, unassigned) [Example 13, 4-[({3-[5-Chloro-2-(1H-tetrazol-1-yl)phenyl]-5-fluoro-7-hydroxy-1-oxido-6,7-dihydro-5H-cyclopenta[b]pyridin-7-yl}carbonyl)amino]benzoic acid] | 3.7 nM | 202 nM
O=C(O)c1ccc(NC(=O)C2(O)CC(F)c3cc(-c4cc(Cl)ccc4-n4cnnn4)c[n+]([O-])c32)cc1 (single isomer, unassigned) [Example 14, 4-[({3-[5-Chloro-2-(1H-tetrazol-1-yl)phenyl]-5-fluoro-7-hydroxy-1-oxido-6,7-dihydro-5H-cyclopenta[b]pyridin-7-yl}carbonyl)amino]benzoic acid] | 219 nM | –
O=C(O)c1ccc(NC(=O)C2(F)CC(F)c3cc(-c4cc(Cl)ccc4-n4cnnn4)c[n+]([O-])c32)cc1 (single isomer, unassigned) [Example 15, 4-[({3-[5-Chloro-2-(1H-tetrazol-1-yl)phenyl]-5,7-difluoro-1-oxido-6,7-dihydro-5H-cyclopenta[b]pyridin-7-yl}carbonyl)amino]benzoic acid] | 14.1 nM | 4920 nM
O=C(O)c1ccc(NC(=O)C2(F)CC(F)c3cc(-c4cc(Cl)ccc4-n4cnnn4)c[n+]([O-])c32)cc1 (single isomer, unassigned) [Example 16, 4-[({3-[5-Chloro-2-(1H-tetrazol-1-yl)phenyl]-5,7-difluoro-1-oxido-6,7-dihydro-5H-cyclopenta[b]pyridin-7-yl}carbonyl)amino]benzoic acid] | 85.6 nM | –
O=C(O)c1ccc(NC(=O)C2(F)CC(F)c3cc(-c4cc(Cl)ccc4-n4cnnn4)c[n+]([O-])c32)cc1 (single isomer, unassigned) [Example 17, 4-[({3-[5-Chloro-2-(1H-tetrazol-1-yl)phenyl]-5,7-difluoro-1-oxido-6,7-dihydro-5H-cyclopenta[b]pyridin-7-yl}carbonyl)amino]benzoic acid] | 4440 nM | –
O=C(O)c1ccc(NC(=O)C2(F)CC(F)c3cc(-c4cc(Cl)ccc4-n4cnnn4)c[n+]([O-])c32)cc1 (single isomer, unassigned) [Example 18, 4-[({3-[5-Chloro-2-(1H-tetrazol-1-yl)phenyl]-5,7-difluoro-1-oxido-6,7-dihydro-5H-cyclopenta[b]pyridin-7-yl}carbonyl)amino]benzoic acid] | 9450 nM | –
O=C(O)c1ccc(NC(=O)C2(CC3CC3)CCc3cc(-c4cc(Cl)ccc4-n4cnnn4)c[n+]([O-])c32)cc1 (single isomer, unassigned) [Example 21, 7-((4-carboxyphenyl)carbamoyl)-3-(5-chloro-2-(1H-tetrazol-1-yl)phenyl)-7-(cyclopropylmethyl)-6,7-dihydro-5H-cyclopenta[b]pyridine 1-oxide] | > 870 nM | –
O=C(O)c1ccc(NC(=O)C2(CC3CC3)CCc3cc(-c4cc(Cl)ccc4-n4cnnn4)c[n+]([O-])c32)cc1 (single isomer, unassigned) [Example 22, 7-((4-carboxyphenyl)carbamoyl)-3-(5-chloro-2-(1H-tetrazol-1-yl)phenyl)-7-(cyclopropylmethyl)-6,7-dihydro-5H-cyclopenta[b]pyridine 1-oxide] | 178 nM | –
O=C(O)c1ccc(NC(=O)C2CCc3cc(-c4cc(Cl)ccc4-n4cnnn4)c[n+]([O-])c32)cc1 (stereo not drawn) [Example 1, 4-[({3-[5-chloro-2-(1H-tetrazol-1-yl)phenyl]-1-oxido-6,7-dihydro-5H-cyclopenta[b]pyridin-7-yl}carbonyl)amino]benzoic acid] | 3.8 nM | 473 nM
O=C(NC12CCC(C(=O)O)(CC1)CC2)C1CCc2cc(-c3cc(Cl)ccc3-n3cnnn3)c[n+]([O-])c21 (stereo not drawn) [Example 2, 7-((4-carboxybicyclo[2.2.2]octan-1-yl)carbamoyl)-3-(5-chloro-2-(1H-tetrazol-1-yl)phenyl)-6,7-dihydro-5H-cyclopenta[b]pyridine=1-oxide] | 2000 nM | –
O=C(O)c1ccc(NC(=O)[C@H]2CCc3cc(-c4c(F)ccc(Cl)c4F)c[n+]([O-])c32)cc1 [Example 3, 4-({[(7S)-3-(3-chloro-2,6-difluorophenyl)-1-oxido-6,7-dihydro-5H-cyclopenta[b]pyridin-b7-yl]carbonyl}amino)benzoic acid] | 2920 nM | –
O=C(O)c1ccc(NC(=O)[C@@H]2CCc3cc(-c4c(F)ccc(Cl)c4F)c[n+]([O-])c32)cc1 [Example 4, 4-({[(7R)-3-(3-chloro-2,6-difluorophenyl)-1-oxido-6,7-dihydro-5H-cyclopenta[b]pyridin-7-yl]carbonyl}amino)benzoic acid] | 2370 nM | –
O=C(O)c1ccc(NC(=O)C2(O)CC(O)c3cc(-c4cc(Cl)ccc4-n4cnnn4)c[n+]([O-])c32)cc1 (stereo not drawn) [Example 8, 4-[({3-[5-Chloro-2-(1H-tetrazol-1-yl)phenyl]-5,7-dihydroxy-1-oxido-6,7-dihydro-5H-cyclopenta[b]pyridin-7-yl}carbonyl)amino]benzoic acid] | 4.2 nM | 816 nM
COC(=O)Nc1ccc(C(=O)NC2CCc3cc(-c4cc(Cl)ccc4-n4cnnn4)c[n+]([O-])c32)cc1 (stereo not drawn) [Example 20, 3-(5-Chloro-2-(H-tetrazol-1-yl)phenyl)-7-(4-((methoxycarbonyl)amino)benzamido)-6,7-dihydro-5H-cyclopenta[b]pyridine 1-oxide] | 894 nM | –
